Consider two molecules from patent US20260263410A1, “USE OF CALCIUM SENSING RECEPTOR ANTAGONISTS FOR TREATING OCULAR DISORDERS” (THE REGENTS OF THE UNIVERSITY OF CALIFORNIA, priority 2023, published 2026).

The test system of one assay is CFTR. Put plainly: OSPD, forskolin / CFTRinh-172-induced change (CFTR-mediated Cl− secretion). Format: in vivo, mice. From the text:
Using pharmacological activators and inhibitors, OSPD allows studying activities of various ion channels/transporters in the ocular surface.^12 In these studies, baseline OSPD is established using a high Cl^− solution that mimics the tear fihn. OSPD changes induced by amiloride (ENaC inhibitor) indicates Na^+ transport via ENaC. Similarly, OSPD changes induced by forskolin (cAMP agonist) and CFTRinh-172 (CFTR inhibitor) indicates Cl^− secretion via cAMP-activated Cl^− channels and particularly CFTR. Lastly, OSPD changes induced by Ca^2+ agonist ATP indicates Cl^− secretion mediated by CaCCs.
Sequential perfusion of the ocular surface with solutions containing amiloride (ENaC inhibitor), forskolin (cAMP agonist), CFTRinh-172 (CFTR inhibitor), and ATP (Ca^2+ agonist) thus allows determining activities of ENaC, CFTR, and CaCC ion channels, respectively (FIG. 4A).
Using CaSR antagonist NPS-2143 in the OSPD experiments confirmed the hypothesis. Perfusion of ocular surface with 30 μM NPS-2143 led to large hyperpolarization (−13 mV), which was 70% of subsequently applied maximal forskolin-induced hyperpolarization after which cAMP agonist forskolin had minimal further secretory effect (FIGS. 6A and 6B). […]
Ocular surface potential difference (OSPD) and tear fluid volume measurements were performed in mice with topically applied cinacalcet (CaSR activator) and NPS-2143 (CaSR inhibitor). […] As described previously,^12, 14, 15 open-circuit transepithelial potential differences were measured in response to serial perfusions of different isoosmolar (310 mOsm/kg H2O) solutions over the ocular surface at 5-10 ml/min. […] Each solution was perfused onto the ocular surface using a gravity perfusion system (ALA Scientific: Farmingdale, NY, USA) for 1-3 minutes until a stable OSPD reading was obtained.

The nature of assay [1]: Tear fluid volume by endodontic absorbent paper point tear test (EAPPTT). In kind it is in vivo, BALB/c mice. As to the method: Endodontic absorbent paper point tear tests (EAPPTT) […] PBS with 30 μM NPS-2143 (or 0.2% DMSO control) in both eyes. […] The wetted length was measured using a millimeter-scale ruler viewed under a magnifying glass. All mice were kept at ambient conditions (approximately 50% humidity and 21° C.) and provided unrestricted access to food and water.

Values joined by “and” are separate entries in the source; they are usually repeats but may differ in a detail not shown here. Equal entries are not always repeated.

`CC(C)(Cc1ccc2ccccc2c1)NC[C@@H](O)COc1cccc(Cl)c1C#N` [NPS-2143, 2-chloro-6-[(2R)-3-([1,1-dimethyl-2-(2-naphthalenyl)ethyl]amino)-2-hydroxypropoxy]benzonitrile]: in the assay with CFTR (10 μM CFTRinh-172 after NPS-2143 and forskolin), the “reversal of effect by CFTR inhibitor CFTRinh-172” value is “partially reversed”. Besides, the “Cl− secretory effect in mouse ocular surface” value in the assay with CFTR (applied topically) is given as “large Cl^− secretory current”. Besides, the “increase in tear fluid volume” value in assay [1] (single dose topical 0.001% or 30 μM, for at least eight hours) is > 60%; in assay [1] (topical 0.001% or 30 μM, single 10 μL dose, as early as 15 minutes after treatment), 60% and ~ 60%.

With `C[C@@H](NCCCc1cccc(C(F)(F)F)c1)c1cccc2ccccc12` [cinacalcet], the “inhibition of CFTR activity (lower CFTRinh-172 response)” value in the assay on CFTR (30 μM cinacalcet, 10 μM CFTRinh-172, concentration-dependent) is listed as “up to 90%”.
